Results: patent US8269012B2, “Aminopyrazole triazolothiadiazole inhibitors of c-met protein kinase” (Vertex Pharmaceuticals Incorporated, priority 2009, dated 2012)

Tests used:
[1] = system: SNU-5 gastric cancer cells; assay: Inhibition of tumor growth of subcutaneously implanted SNU-5 cells in SCID mice; assay type: in vivo; details: all three dose levels tested (3, 10, 30 mg/kg/day)
Procedure: Compound 3 was investigated for its ability to inhibit tumor growth of subcutaneously implanted SNU-5 gastric cancer cells in severe combined immunodeficient (SCID) mice. SNU-5 cells (CRL-5973, American Type Culture Collection, Manassas, Va.) were cultured in ISCOVE's Modified Dulbecco's Medium (IMDM) (Invitrogen, Carlsbad, Calif.) supplemented with 10% fetal bovine serum (FBS) (Hyclone, Logan, Utah), 100 units/mL of penicillin, […] of streptomycin (Invitrogen, Carlsbad, Calif.), and 2 mM L-glutamine. Cells were cultured for fewer than 4 passages prior to implantation. Female SCID mice (Fox Chase SCID, CB-17, mice weighing 17 to 19 g obtained from Charles River Laboratories, Wilmington, MA) were injected subcutaneously (s.c.) with 5×10^6 SNU-5 cells into the right dorsal axillary region on Day 0. […]
Compound 3, formulated in a vehicle containing 30% (w/v) Propylene Glycol and 10% Solutol (Sigma-Aldrich, St Louis, Mo.) as a suspended homogenous form, was administered orally (p.o.) once daily (QD) at total daily doses of 3, 10, and 30 mg/kg/day for 14 days. Tumor volumes (calculated using the ellipsoid formula, […], where length and width represented the largest and smallest dimensions of the tumor, respectively) were recorded for two weeks after the initiation of treatment. […]

A549HGF cells = assay: Inhibition of tumor metastasis to the lungs, subcutaneous A549HGF tumors in SCID mice; assay type: in vivo
Procedure: Compound 3 was investigated for its ability to inhibit the metastasis of subcutaneously implanted tumors to the lungs of severe combined immunodeficient (SCID) mice. Accordingly, A549 cells (A549HGF-1m1115, transfected with hepatocyte growth factor, luciferase, and green fluorescent protein) were cultured in RPMI1640 medium (Invitrogen, Carlsbad, Calif.) supplemented with 10% fetal bovine serum (FBS) (Hyclone, Logan, Utah), 100 units/mL of penicillin, […] of streptomycin (Invitrogen, Carlsbad, Calif.), and 2 mM L-glutamine for fewer than 4 passages prior to implantation. […]
Female SCID mice were injected subcutaneously (s.c.) with 5×10^6 A549HGF cells into the right dorsal axillary region on Day 0. […] Ectopic tumor measurements were recorded twice a week for 3 weeks after the initiation of treatment.
In order to evaluate the anti-metastatic potential of Compound 3, at the termination of the study all animal lung tissues were harvested and lysed by homogenization for ex vivo quantification via luciferase luminescence.

Cn1cc(Nc2nn3c(C(F)(F)c4ccc5ncccc5c4)nnc3s2)cn1 [Compound 3, 3-(Difluoro(quinolin-6-yl)methyl)-N-(1-methyl-1H-pyrazol-4-yl)-[1,2,4]triazolo[3,4-b][1,3,4]thiadiazol-6-amine]
anti-tumor activity [1]: significant and dose-dependent anti-tumor activity | formation of lung metastases (A549HGF cells; 60 mg/kg/day compared to vehicle controls, p<0.02): significantly inhibits the formation of lung metastases | change in primary A549 tumor cell growth at the site of implantation vs vehicle (A549HGF cells; 30 or 60 mg/kg/day p.o. QD, 22 days): no significant change
